Measurements from patent US20240182526A1, “COMPOSITIONS AND METHODS FOR MODULTING INFLAMMATORY AND DEGENERATIVE DISORDER” (University of Southern California, priority 2021, published 2024).
Entries after “also recorded” stand apart in the source; their conditions may differ. Blank lines part the entries; values can stand above or below the compound they belong to. Where no end group is shown, it is not given here. [ ]: non-standard residue; d: D form. pY = N[C@@H](Cc1ccc(OP(=O)(O)O)cc1)C(=O)O

Key:
gp130 receptor signaling = settings: previous studies; cited from earlier work
[1] = tested on: adult and pig articular cartilage; settings: cited from earlier work
[2] = tested on: rat medial meniscectomy and cartilage surface injury models; settings: cited from earlier work
pNF-κB p65 = test: Western blot of pNF-κB p65 in pig articular chondrocytes; type: cell-based; settings: for protein levels of pNF-κB p65 after OSM stimulation: pig articular chondrocytes, 24 hours
Description: (§1) For standard western blot, treated and non-treated cells were lysed in RIPA Lysis and Extraction Buffer (Pierce, Rockford, IL) containing protease inhibitors (Pierce) followed by sonication with a 15-second pulse at a power output of 2 using the VirSonic 100 (SP Industries Company, Warminster, PA). Protein concentrations were determined by BCA protein assay (Pierce). Proteins were resolved with SDS-PAGE utilizing 4-15% Mini-PROTEAN TGX Precast Gels and transferred to Trans-Blot Turbo Transfer Packs with a 0.2-μm pore-size nitrocellulose membrane. The SDS-PAGE running buffer, 4-15% Mini-PROTEAN TGX Precast Gels, Trans-Blot Turbo Transfer Packs with a 0.2-μm pore-size nitrocellulose membrane was purchased from Biorad (Hercules, CA). Nitrocellulose membranes were blocked in 5% nonfat milk in 0.05% (v/v) Tween 20 (PBST) (Corning, Manassas, VA). Membranes were then incubated with primary antibodies p-gp130 Y814 (Evseenko lab, AbClonal), p-AKT (cat #4060, Cell Signaling), p-ERK 1/2 (cat #9106, Cell Signaling), p-Y416-SRC (cat #1246F, Novus Biologicals), p-gp130 (cat #1453R, Bioss USA) and p-NFκBp65 (cat #8242, Cell Signaling), and/or YAP1 (cat #4912, Cell Signaling). Histone H3 (cat #9515, Cell Signaling) was used as loading control. After washing in PBS containing 0.05% (v/v) Tween 20 (PBST), membranes were incubated with rabbit (cat #31460, Thermo Scientific) or mouse IgG-HRP (cat #31430, Thermo Scientific) secondary antibodies. After washing, membranes were developed with the Clarity Western ECL Blotting Substrate (Hercules, CA). Quantification of blots was performed using ImageJ 1.44 followed by Prism9 for analysis.

[3] = tested on: ADAMTS4, ADAMTS5 and MMP13 transcription; test: qPCR of matrix-degrading genes in OSM-stimulated pig articular chondrocytes; type: cell-based; settings: 48 hours
Description: (§2) Quantitative Real-Time PCR. Power SYBR Green (Applied Biosystems) RT-PCR amplification and detection was performed using an Applied Biosystems Step One Plus Real-Time PCR machine. The comparative Ct method for relative quantification (2-ΔΔCt) was used to quantitate gene expression. TBP (TATA-box binding protein) was used for gene normalization and expressed relative to a calibrator (sample in each set with lowest expression). Q-PCR for was conducted using the following primers: human: TBP forward, 5′ GATGGACGTTCGGTTTAGG 3′ (SEQ ID NO:28); TBP reverse, 5′ AGCAGCACAGTACGAGCAA 3′ (SEQ ID NO:29), MMP13 forward, 5′ […] 3′(SEQ ID NO:30); MMP13 reverse, 5′ GAACCCCGCATCTTGGCTT 3′ (SEQ ID NO:31), ADAMTS5 forward 5′ […] 3′ (SEQ ID NO:32); ADAMTS5 reverse, 5′ […] 3′ (SEQ ID NO:33), ADAMTS4 forward 5′ […] 3′ (SEQ ID NO:34); ADAMTS4 reverse, 5′ […] 3′ (SEQ ID NO:35), Collagen II forward, 5′ […] 3′ (SEQ ID NO:36); Collagen II reverse 5′ […] 3′ (SEQ ID NO:37); Aggrecan forward, 5′ AGGCAGCGTGATCCTTACC 3′ (SEQ ID NO:38); Aggrecan reverse, 5′ […] 3′ (SEQ ID NO:39). Cells were treated with 10 ng/mL OSM and/or with 5 μM SRC (SU6656) inhibitor, 10 ng/mL OSM and/or 50 ng/mL WT/F814 plasmids; 10 ng/mL OSM and/or 100 or 300 ug/mL of peptide QQpYF (Evseenko lab, Thermo Scientific); 10 uM R805 and/or 10 ng/mL OSM.

pSRC [4] = test: Western blot of pSRC in pig articular chondrocytes; type: cell-based; settings: for protein levels of pSRC after OSM stimulation: pig articular chondrocytes, 4 and 24 hours
Description: as §1
(§3) The studies delineate that gp130 Y814 regulates SRC downstream signaling; since SRC is known to associate with gp130, it was hypothesized that gp130 and SRC are capable of physically interacting on Y814 and hindering this interaction will prevent SRC from signaling. In order to impede this interaction, experiments were performed using an innovative peptide library screen with short and overlapping peptides mimicking the motif of gp130 around Y814 that were individually tested for pSRC downregulation; these peptides ranged from 4-15 amino acids. The peptides contained a protein sequence stretch of consecutive amino acids surrounding gp130 Y814 residue. To test their efficacy, pig articular chondrocytes were stimulated with or without OSM in presence or absence of the peptides followed by co-immunoprecipitation to determine interaction and western blot detecting pSRC activity. […] Due to sequence specificity, the peptide is capable of discriminating among other gp130 regions serving as a competitive inhibitor.

pSRC [5] = biological target: T1, pSRC (Homo sapiens, UniProt P12931); test: Western blot of pSRC in human synovium stimulated with OSM; type: cell-based; settings: with or without OSM, 24 hours
T1 construct: from tissue; host or cells: human synovium
Description: as §1, with “After washing in PBS containing 0.05% (v/v) Tween 20 (PBST), membranes were incubated with rabbit (cat #31460, Thermo Scientific) or mouse IgG-HRP (cat #31430, Thermo Scientific) secondary antibodies. After washing, membranes were developed with the Clarity Western ECL Blotting Substrate (Hercules, CA).” left out

pNF-kB p65 = test: Western blot of pNF-kB p65 in human synovium stimulated with OSM; type: cell-based; settings: with or without OSM, 24 hours
Description: as §1, with “After washing in PBS containing 0.05% (v/v) Tween 20 (PBST), membranes were incubated with rabbit (cat #31460, Thermo Scientific) or mouse IgG-HRP (cat #31430, Thermo Scientific) secondary antibodies. After washing, membranes were developed with the Clarity Western ECL Blotting Substrate (Hercules, CA).” left out

gp130 and pSRC = test: Co-immunoprecipitation of complex formation between gp130 and pSRC in pig articular chondrocytes; type: cell-based; settings: pig articular chondrocytes with or without OSM, 4 and 24 hours
Description: IP Western, SDS-PAGE and Western blot analysis. For transfections of gp130 wild type (WT) (InVivoGen) and gp130 mutant plasmids (Thermo Scientific), cells were plated 24 h prior to transfection to produce monolayers that were 60% confluent and these were transfected by using Turbo DNAfectin 3000 (cat #G3000, Lambda Biotech) according to the manufacturer's protocol. 72h after transfection, cells were maintained in DMEM (10% FBS, 1% PSA) and were either left untreated or were stimulated with IL-6 (10 ng/mL) and/or OSM (10 ng/mL) for 24 h before cell harvest and protein extraction. For immunoprecipitation assays, cell lysates were incubated with Protein G Agarose (cat #20398, Pierce) and anti-Flag antibody (cat #2368, Cell Signaling) at 4° C. overnight. The immune complexes were sedimented, washed and separated by SDS-PAGE (see below) and further analyzed by Western blot using p-SRC (pY416-SRC) (cat #1246F, Novus Biologicals) or NEMO (cat #18474-1-AP, Proteintech) antibodies and normalized to gp130 (cat #bs-1459R, Bioss) or total SRC (cat #2123, Cell Signaling). For R805 treatment, the immune complexes were sedimented, washed and separated by SDS-PAGE and further analyzed by Western blot using OSMR (cat #ab85575, Abcam), LIFR (Santa cat #515337, Cruz Biotechnology) or p-SRC (pY416-SRC) (Novus Biologicals, cat #1246F). Histone H3 (cat #9715, Cell Signaling), gp130 (cat #bs-1459R, Bioss), total SRC (cat #2123, Cell Signaling) or Flag antibody (cat #14739, Cell Signaling) were used as loading controls.
as §3

[6] = tested on: ADAMTS4/5, MMP13, COL2 and ACAN transcription; test: qPCR of catabolic and anabolic genes in human adult OA articular chondrocytes; type: cell-based; settings: 48 hours
Description: as §2

[7] = tested on: cleaved ACAN and COL2 neoepitopes; test: Neoepitope assay on pig articular cartilage explants stimulated with OSM; type: cell-based; settings: 72 hours, normalized to wet weight
Description: Neoepitope analysis. WT and F814 mouse articular cartilage explants were treated with or without OSM (10 ng/mL). Pig articular cartilage explants were stimulated with or without OSM (10 ng/mL) and treated with or without peptide QQpYF (100 μg/mL or 300 μg/mL). For R805 treatment, pig articular cartilage explants were stimulated with or without OSM (10 ng/mL) and treated with or without R805 (0.01, 0.1, 1 or 10 μM). The explants were then digested for 2 hr at 37° C. with 0.01 units chondroitinase ABC (Sigma Aldrich, St. Louis, MO). Samples were then dialyzed with ultrapure water for 24 hr at 4° C., freeze dried, dissolved in RIPA Lysis and Extraction Buffer (Pierce, IL) containing protease inhibitors (Pierce) followed by sonication. Proteins were separated and analyzed by Western blot using primary antibodies against aggrecan (cat #NB100-74350, Novus Biologicals,) and collagen II neoepitopes (cat #50-1035, Ibex). Wet weight of explants was used as loading control.

[8] = pig articular chondrocytes treated with peptides for 24 hours, no OSM

Compound: Brc1ccc(Nc2nc(-c3ccccc3)cs2)cc1 [RCGD 423]
STAT3 signaling and downstream MYC (gp130 receptor signaling): highly activate STAT3 signaling and its downstream target, proto-oncogene MYC
activation of MAPK/ERK and NF-κB pathways (gp130 receptor signaling): prevents activation of MAPK/ERK and NF-κB pathways
articular cartilage degeneration [1]: protects adult and pig articular cartilage from degeneration
cartilage regeneration [2]: promotes cartilage regeneration

Compound: CN(C)S(=O)(=O)c1ccc2c(c1)/C(=C/c1cc3c([nH]1)CCCC3)C(=O)N2 [SU6656, reference compound]
protein levels of pNF-κB p65 after OSM stimulation (pNF-κB p65): can be blocked by SRC inhibition
OSM-induced transcription of matrix-degrading genes (ADAMTS4, ADAMTS5, MMP13), qPCR [3]: can be blocked by SRC inhibition

Compound: PRQQ[pY]FKQ [Peptide 5]
endogenous protein levels of phosphorylated c-SRC (pSRC) (pSRC [4]; [8]): inhibits endogenous SRC and NF-kB protein expression
endogenous protein levels of NF-kB p65 (pNF-κB p65; [8]): inhibits endogenous SRC and NF-kB protein expression
protein levels of pSRC (pSRC [5]): inhibits SRC and NF-kB protein expression
protein levels of pNF-kB p65 (pNF-kB p65): inhibits SRC and NF-kB protein expression

transcription of catabolic enzymes (ADAMTS4/5 and MMP13), qPCR ([6]; listed as QQpYF): markedly lower
Compound: QQ(PY)F (QQYF) [Peptide P2A, 4 amino acid SRC-targeting interfering peptide, Gln-Gln-phosphoTyr-Phe]
complex formation between gp130 and pSRC (gp130-SRC interaction) (gp130 and pSRC): most efficacious at physically hindering gp130-SRC protein-protein interaction
complex formation between gp130 and pSRC (gp130-SRC interaction) (gp130 and pSRC; listed as QQ[pY]F): most efficacious at physically hindering gp130-SRC protein-protein interaction
complex formation between gp130 and pSRC (gp130-SRC interaction) (gp130 and pSRC; listed as QQpYF): prevents physical interaction of gp130 and SRC
protein levels of pSRC after OSM stimulation (pSRC [4]): decreasing SRC and NF-κB activation; also recorded: significant effect on decreasing SRC and NF-κB signaling; also recorded: inhibits SRC activity
protein levels of pSRC after OSM stimulation (pSRC [4]; listed as QQ[pY]F): decreasing pSRC activation
protein levels of pSRC after OSM stimulation (pSRC [4]; listed as QQpYF): inhibits activation of SRC downstream of gp130
protein levels of pNF-κB p65 after OSM stimulation (pNF-κB p65): decreasing SRC and NF-κB activation; also recorded: significant effect on decreasing SRC and NF-κB signaling
biosynthesis (COL2 and ACAN transcription), qPCR [6]: promotes biosynthesis
transcription of catabolic enzymes (ADAMTS4/5 and MMP13), qPCR [6]: decreased transcription of catabolic enzymes; also recorded: inhibits transcription of matrix degrading genes
biosynthesis (COL2 and ACAN transcription), qPCR ([6]; listed as QQpYF): increased
matrix degeneration: levels of cleaved ACAN and COL2 neoepitopes [7]: prevented matrix degeneration in pig cartilage explants; also recorded: sustained prevention of catabolism; also recorded: prevents degeneration in pig cartilage explants; also recorded: dose dependent
matrix degeneration: levels of cleaved ACAN and COL2 neoepitopes ([7]; listed as QQpYF): decrease of aggrecanase and collagenase activity
